Results reported in PubChem BioAssay AID766 (NMMLSC, 2007).

Molecular target: N-formyl peptide receptor 2 (Homo sapiens) (UniProt P25090)
Experiment: human FPR2 ligand displacement potency – cell-based, flow cytometry, Ki from IC50, dose response (AID 766)
Conditions: FPRL1-expressing cells, fluorescent ligand binding competition, binding constant from IC50

N-formyl peptide receptor 2 (Homo sapiens), sequence (P25090 whole entry, looked up): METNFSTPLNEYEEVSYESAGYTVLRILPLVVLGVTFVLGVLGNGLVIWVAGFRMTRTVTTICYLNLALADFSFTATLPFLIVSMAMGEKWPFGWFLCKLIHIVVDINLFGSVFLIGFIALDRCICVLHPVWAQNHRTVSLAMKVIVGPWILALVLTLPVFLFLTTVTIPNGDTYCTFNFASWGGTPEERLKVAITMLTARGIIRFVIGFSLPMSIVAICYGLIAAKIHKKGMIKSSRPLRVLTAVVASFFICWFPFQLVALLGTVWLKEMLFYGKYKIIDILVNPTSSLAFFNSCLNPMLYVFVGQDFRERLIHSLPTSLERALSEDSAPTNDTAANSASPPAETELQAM

SMILES | Ki [µM]
COc1ccc(-c2cc(C(F)(F)F)nc(N3CCN(c4ccccc4)CC3)n2)cc1OC | > 30.2
COc1ccc(-c2cc(C(F)(F)F)nc(N3CCN(Cc4ccccc4)CC3)n2)cc1OC | 10
CCOC(=O)N1CCN(c2nc(-c3ccc(OC)c(OC)c3)cc(C(F)(F)F)n2)CC1 | > 30.5
O=C(N1CCN(c2nc(-c3ccccc3)c3ccccc3n2)CC1)C(F)(F)F | > 34.7
COc1ccc(-c2cc(C(F)(F)F)nc(N3CCN(C(c4ccccc4)c4ccccc4)CC3)n2)cc1OC | > 25.1

More lines, now with the values ahead:

Ki [µM] | SMILES
2.2 | COc1ccc(-c2cn3cccnc3n2)cc1NC(=O)C(C)C
6 | COc1ccc(CC(=O)Nc2cc(-c3cn4cccnc4n3)ccc2OC)cc1
> 39.9 | COc1ccc(-c2cn3cccnc3n2)cc1NC(=O)C1CCCC1
6.5 | CCC(=O)Nc1cc(-c2cn3cccnc3n2)ccc1OC
4.1 | COc1ccc(-c2cn3cccnc3n2)cc1NC(=O)C1CC1
